According to patent US20090197891A1, “Use of (4-Alkylpiperazinyl)(phenyl) methanones in the treatment of alzheimer's disease” (priority 2004, published 2009):
Entries after “also recorded” stand apart in the source; their conditions may differ.

Tests used:
Type in all cases: cell-based, rat
PC12 cells [1] = test: Aβ1-42-induced ATP depletion, ATPLite-M assay; details: for protective effect on mitochondrial function / ATP content: compound at 1 μM
Method: (§1) PC12 cells (rat pheochromocytoma) (ATCC, Manassas, Va.) were cultured in RPMI 1640 without glutamine medium containing 10% of bovine serum and 5% of horse serum at 37° and 5% CO2. These cells respond reversibly to NGF by induction of the neuronal phenotype. PC12 cells were incubated for 24 hours in 96-well plates (5.10^4 cells per well) with increasing concentrations (1, 10 and 100 μM) of procaine, procainamide, lidocaine, tetracaine, SP015, SP016, SP017 or SP008. Aβ1-42 was incubated overnight at 4° C. and then added to the cells at 0.1, 1 or 10 μM final concentrations for a 24 hours time period.
ATP concentrations were measured using the ATPLite-M™ assay (Packard BioSciences Co.), as previously described (Lecanu et al., cited above). In brief, cells were cultured on black 96-well ViewPlate™ and the ATP concentrations measured on a TopCount NXT™ counter (Packard BioSciences Co.) according to the manufacturer recommendations. The effect of Aβ1-42 was expressed in arbitrary units. To compare the potential protective effect of the compounds tested on ATP recovery, the decrease of ATP concentration induced by Aβ1-42 was considered to be 100% reduction and the effects of the compounds tested are shown as changes of this percentage.

PC12 cells [2] = test: Glutamate-induced excitotoxicity, cell viability by MTT assay; details: for prevention of glutamate-induced neurotoxicity: 24 h pre-treatment with compound 0.3-30 μM
Method: To study the role played by the NMDA receptor in the Aβ1-42-induced neurotoxicity, increasing concentrations of (+)-MK801 were added to the cell media immediately before Aβ1-42. Cell viability was assessed 4 hours later using the MTT assay. To assess the effect of procaine and SP008 on the glutamate-induced excitotoxicity, PC12 cells were pre-treated with procaine or SP008 at 0.3, 1, 3, 10 and 30 μM for 24 hours and then submitted to glutamate exposure for another 24 hour time period. Cell viability was subsequently assessed using the MTT assay. To assess the role of sodium channels in A8142-induced neurotoxicity, PC12 cells were incubated for 4 hours with the sodium-channel blocker TTX at 3, 30 or 300 μM followed by addition of Aβ1-42. Cell viability was assessed by MTT 24 hours later. The involvement of the oxidative stress in the toxicity of Aβ1-42 was assessed by incubating the PC12 in the presence of 10, 100 or 500 μM PBN for 24 hours. Aβ1-42 was then added to the incubation media. Cell viability was assessed by MTT 24 hours later.
(§2) The cellular toxicity of Aβ was assessed using the 3-(4,5-dimethylthiazol-2-yl)-2,5-diphenyl tetrazolium bromide (MTT) assay (Trevigen, Gaithersburg, Md.) as previously described (Lecanu et al. (2004) Steroids, 69: 1-16). Briefly, 10 μl of the MTT solution were added to the cells cultured in 100 μl of medium. After an incubation period of 4 hours in the same conditions as above, 100 μl of detergent were added and cells incubated overnight at 37° C. The blue coloration was quantified at 600 nm and 690 nm using the Victor spectrophotometer (EGG-Wallac, Gaithersburg, Md.). The effect of Aβ1-42 was expressed as (DO600-DO690). To compare the protective effect of the compounds tested, the decrease of MTT signal observed with Aβ1-42 was considered to be the 100% inhibition of the NADPH diaphorase activity and the effect of the compounds tested is shown as an increase or decrease of this percentage.

PC12 cells [3] = test: Aβ1-42-induced neurotoxicity, cell viability by MTT assay
Method: as §1, §2

Structure (SMILES): CCN1CCN(C(=O)c2ccc(OC)c(OC)c2OC)CC1 [SP008, 4-Ethyl-1-(2,3,4-trimethoxybenzoyl)-piperazine]
- preservation of intracellular ATP against Aβ1-42, general statement (PC12 cells [1]): preserved Aβ1-42-induced ATP depletion
- preservation of Aβ1-42-depleted ATP stock (PC12 cells [1]; 0.1 μM Aβ1-42, compound at 10 μM): did not preserve
- prevention of ATP decrease (PC12 cells [1]; 0.1 μM Aβ1-42, compound at 1 and 100 μM, p<0.05): prevented the ATP decrease
- ATP preservation (PC12 cells [1]; 1 μM Aβ1-42, compound 1-100 μM): dose-dependent ATP preservation
- restoration of ATP levels (PC12 cells [1]; 10 μM Aβ1-42, only 100 μM compound statistically significant (p<0.01)): dose-dependent restoration of ATP levels
- prevention of Aβ1-42-induced intracellular ATP stock depletion (PC12 cells [1]; even against 10 μM Aβ1-42): prevent the Aβ1-42-induced intracellular ATP stock depletion
- inhibition of the neurotoxic effect of glutamate, general statement (PC12 cells [2]): inhibited the neurotoxic effect
- lowest concentration reducing glutamate-induced neurotoxicity (PC12 cells [2]): 0.3 µM
- prevention of glutamate-induced neurotoxicity (PC12 cells [2]; glutamate 100 μM): biphasic
- neuroprotective effect compared with procaine at the same concentration (PC12 cells [2]; glutamate 100 μM, p<0.001): more important than the procaine effect
- concentration of maximum (peak) protective effect (PC12 cells [2]; glutamate 100 μM, p<0.001 compared to control): 3 µM
- neuroprotection against Aβ1-42 (PC12 viability), general statement (PC12 cells [3]): significant neuroprotective properties; also recorded: strong neuroprotective properties
- protective effect against Aβ1-42-induced cytotoxicity (MTT) (PC12 cells [3]; 0.1 μM Aβ1-42, compound at 10 μM, p<0.01): exerted a protective effect
- reduction of Aβ1-42-induced NADPH diaphorase inhibition (MTT) (PC12 cells [3]; 0.1 μM Aβ1-42, compound at 1 and 100 μM): did not reduce
- neuroprotective effects against Aβ1-42 (MTT) (PC12 cells [3]; 1 μM Aβ1-42, compound at 1 (p<0.05), 10 (p<0.01) and 100 μM (p<0.001)): demonstrated neuroprotective effects
- neuroprotective properties against Aβ1-42-induced toxicity (MTT) (PC12 cells [3]; 10 μM Aβ1-42, compound at 10 (p<0.05) and 100 μM (p<0.01)): displayed neuroprotective properties
- potency against Aβ1-42 compared with procaine (PC12 cells [3]; two highest concentrations of Aβ1-42): more potent than procaine

Structure (SMILES): CC(=O)OC1CC(O)C2(C)C(OC(C)=O)C3C(CC(C)C12)OC(=O)C3CN1CCN(C(=O)c2ccccc2)CC1 (stereo not drawn) [SP015, Acetic acid 7-acetoxy-3-(4-benzoyl-piperazin-1-yl-methyl)-5-hydroxy-4a,8-dimethyl-2-oxo-dodecahydro-azuleno[6,5-b]furan-4-yl ester]
- preservation of intracellular ATP against Aβ1-42, general statement (PC12 cells [1]): preservation of the ATP cellular stocks
- protective effect on mitochondrial function / ATP content (PC12 cells [1]; highest Aβ1-42 concentration examined): important protection
- neuroprotection against Aβ1-42 (PC12 viability), general statement (PC12 cells [3]): neuroprotection
- neuroprotective effect on PC12 viability after Aβ1-42 exposure (PC12 cells [3]; compound at 1 and 10 μM, only against 10 μM Aβ1-42): displayed a neuroprotective effect

Structure (SMILES): CC(=O)OC1CC(OC(C)=O)C2(C)C(O)C3C(CC(C)C12)OC(=O)C3CN1CCN(C(=O)c2ccccc2)CC1 (stereo not drawn) [SP016, acetic acid 5-acetoxy-3-(4-benzoylpiperazin-1-yl-methyl)-4-hydroxy-4a,8-dimethyl-2-oxo-dodecahydro-azuleno[6,5-b]furan-7-yl ester]
- preservation of intracellular ATP against Aβ1-42, general statement (PC12 cells [1]): preservation of the ATP cellular stocks
- protective effect on mitochondrial function / ATP content (PC12 cells [1]; low Aβ1-42 concentrations (0.1 μM)): significant effect
- neuroprotection against Aβ1-42 (PC12 viability), general statement (PC12 cells [3]): no effect was observed

Structure (SMILES): CC1=CCC23OC2(C)CCC2C(CN4CCN(C(=O)c5ccccc5)CC4)C(=O)OC2C13 (stereo not drawn) [SP017, 3-(4-benzoyl-piperazin-1-yl-methyl)-6,6a-epoxy-6,9-dimethyl-3a,4,5,6,6a,7,9a,9b-octahydro-3H-azuleno[4,5-b]furan-2-one]
- preservation of intracellular ATP against Aβ1-42, general statement (PC12 cells [1]): preservation of the ATP cellular stocks
- efficacy range, inhibition of Aβ1-42 toxicity (mitochondrial diaphorase activity) (PC12 cells [3]): 30-70%
- neuroprotection against Aβ1-42 (PC12 viability), general statement (PC12 cells [3]): highest protective effect; also recorded: neuroprotection

Structure (SMILES): CCN(CC)CCOC(=O)c1ccc(N)cc1 [procaine, reference compound]
- preservation of intracellular ATP against Aβ1-42, general statement (PC12 cells [1]): restore partially
- inhibition of the neurotoxic effect of glutamate, general statement (PC12 cells [2]): inhibited the neurotoxic effect
- prevention of glutamate-induced neurotoxicity (PC12 cells [2]; glutamate 100 μM): prevented the glutamate-induced neurotoxicity in a biphasic manner
